Here are results for one molecule from PubChem BioAssay AID624113 (National Center for Advancing Translational Sciences (NCATS), 2012).

For the data set, the system named is mouse plasma stability, percent remaining. The experiment in a line: qHTS Assay for Inhibitors of Bacillus subtilis Sfp phosphopantetheinyl transferase (PPTase): Mouse Plasma Stability. Conditions: stronger effect = higher value. The text has this: The covalent attachment of a phosphopantetheinyl (4'-PP) arm to a variety of synthases and other proteins is a key posttranslational protein modification. The 4'-PP is installed on the proteins post-translationally from coenzyme A (CoA) on a conserved serine residue by action of phosphopantetheinyl transferase (PPTase) enzymes. Phosphopantetheinylation is essential for synthase activity, and removal of the PPTase gene precludes natural product synthesis in microorganisms, or in the case of fatty acid biosynthesis, renders the organism unviable. PPTase enzymes belong to a distinct structural superfamily. Within bacteria, these enzymes are grouped into two classes based upon primary structure, the AcpS-Type and Sfp-Type PPTases.
Sfp-type PPTases, corresponding to an activator of surfactin production in Bacillus subtilis, are responsible for modifying type I polyketide and nonribosomal peptide synthases of prokaryotes. Sfp-type PPTases are responsible for the activation of a variety of pathogen-associated virulence factors. […]
5 uM of compound is incubated with mouse liver microsome; the reference compounds are verapamil and warfarin. Compounds are incubated and samples are analyzed with LC-MS/MS.
On the technique in general: In qHTS, concentration-response curves come from the screen itself.

For `COc1ccnc(NC(=S)N2CCN(c3ncc(C(F)(F)F)cc3Cl)CC2)c1`, the percent remaining was 100%.
